# Laboratory results from US20250057849A1, “ANTIVIRAL COMPOSITION COMPRISING NUCLEOSIDE ANALOGUES DERIVED FROM NUCLEIC ACID AND PHARMACEUTICALLY ACCEPTABLE SALT THEREOF” (CJ CheilJedang Corporation, priority 2021, published 2025).
# System: PRRSV (NA type, VR-2332 strain)
# Assay: PRRSV infection inhibition in Marc-145 cells (immunofluorescence staining)
# Format: cell-based, Porcine Reproductive and Respiratory Syndrome virus
# Conditions: CC50/IC50
row,Compound,"SI (selectivity index), PRRSV"
1,"Nc1nc2c(ncn2[C@@H](CO)OC(CO)CO)c(=O)[nH]1 [Acyclic diol-guanosine, acyclic diol form of guanosine]",>17.5
2,"O=c1[nH]cnc2c1ncn2[C@@H](CO)OC(CO)CO [Acyclic diol-inosine, acyclic diol form of inosine]",>17.6

# Same assay, conditions: Porcine reproductive and respiratory syndrome virus, MARC145, 72 h, Marc-145 cells, 100 TCID50/ml PRRSV, three days after treatment; read-out: PRRSV infection inhibition concentration IC50
row,Compound,IC50
1,"Nc1nc2c(ncn2[C@@H](CO)OC(CO)CO)c(=O)[nH]1 [Acyclic diol-guanosine, acyclic diol form of guanosine]",458 µM
2,"O=c1[nH]cnc2c1ncn2[C@@H](CO)OC(CO)CO [Acyclic diol-inosine, acyclic diol form of inosine]",454 µM

# System: PEDV (G1a type, SM98 strain)
# Assay: PEDV infection inhibition in Vero cells (PEDV detection kit on isolated RNA)
# Format: cell-based, Porcine Epidemic Diarrhea virus
# Conditions: CC50/IC50
# Protocol: The next day, PEDV (G1a type, SM98 strain) of 200 TCID50/ml and inosine, xanthosine and guanosine in the dialdehyde and acyclic diol forms were treated to the cells simultaneously, and after 2 days, using commercialized Viral gene (DNA/RNA) extraction kit (iNtRON, 101410754), RNA was isolated. For the isolated RNA, using commercialized PEDV detection kit (Mediandiagnostics, NS-PED-31), the antiviral efficacy of the materials was verified.
row,Compound,"SI (selectivity index), PEDV"
1,"Nc1nc2c(ncn2[C@@H](CO)OC(CO)CO)c(=O)[nH]1 [Acyclic diol-guanosine, acyclic diol form of guanosine]",>5.6
2,"O=c1[nH]cnc2c1ncn2[C@@H](CO)OC(CO)CO [Acyclic diol-inosine, acyclic diol form of inosine]",>3.6

# Same assay, conditions: Porcine epidemic diarrhea virus, 48 h; Vero cells, 200 TCID50/ml PEDV, after 2 days; read-out: PEDV infection inhibition concentration IC50
row,Compound,IC50
1,"Nc1nc2c(ncn2[C@@H](CO)OC(CO)CO)c(=O)[nH]1 [Acyclic diol-guanosine, acyclic diol form of guanosine]",1780 µM
2,"O=c1[nH]cnc2c1ncn2[C@@H](CO)OC(CO)CO [Acyclic diol-inosine, acyclic diol form of inosine]",2770 µM

# System: PCV2
# Assay: PCV2 infection inhibition in PK15 cells (qPCR)
# Format: cell-based, Porcine Circovirus Type 2
# Conditions: CC50/IC50
# Protocol: For the isolated DNA, using PCV2-specific primers (F-[…] , R-[…] ) and realtime RT-qPCR experimental method (95° C., 30 seconds 1 cycle, 95° C., 20 seconds, 56° C., 60 seconds 40 cycles), the antiviral efficacy of the materials was verified.
row,Compound,"SI (selectivity index), PCV2"
1,"Nc1nc2c(ncn2[C@@H](CO)OC(CO)CO)c(=O)[nH]1 [Acyclic diol-guanosine, acyclic diol form of guanosine]",>4.3
2,"O=c1[nH]cnc2c1ncn2[C@@H](CO)OC(CO)CO [Acyclic diol-inosine, acyclic diol form of inosine]",>12.9

# Same assay, conditions: Porcine circovirus 2, PK-15, 96 h; PK15 cells, 200 TCID50/well PCV2, after 4 days; read-out: PCV2 infection inhibition concentration IC50
row,Compound,IC50
1,"Nc1nc2c(ncn2[C@@H](CO)OC(CO)CO)c(=O)[nH]1 [Acyclic diol-guanosine, acyclic diol form of guanosine]",2330 µM
2,"O=c1[nH]cnc2c1ncn2[C@@H](CO)OC(CO)CO [Acyclic diol-inosine, acyclic diol form of inosine]",776 µM

# System: PRV
# Assay: microbe, parasite or virus in culture
# Format: cell-based, Porcine Rotavirus
# Conditions: CC50/IC50
row,Compound,"SI (selectivity index), PRV"
1,"Nc1nc2c(ncn2[C@@H](CO)OC(CO)CO)c(=O)[nH]1 [Acyclic diol-guanosine, acyclic diol form of guanosine]",>2.9
2,"O=c1[nH]cnc2c1ncn2[C@@H](CO)OC(CO)CO [Acyclic diol-inosine, acyclic diol form of inosine]",>3.5

# Same assay, conditions: Rotavirus C, Vero, 72 h, read-out: PRV infection inhibition concentration IC50
row,Compound,IC50
1,"Nc1nc2c(ncn2[C@@H](CO)OC(CO)CO)c(=O)[nH]1 [Acyclic diol-guanosine, acyclic diol form of guanosine]",3400 µM
2,"O=c1[nH]cnc2c1ncn2[C@@H](CO)OC(CO)CO [Acyclic diol-inosine, acyclic diol form of inosine]",2830 µM

# System: Swine Influenza virus (SIV)
# Assay: organism not typed
# Format: cell-based
# Conditions: CC50/IC50
row,Compound,"SI (selectivity index), SIV"
1,"Nc1nc2c(ncn2[C@@H](CO)OC(CO)CO)c(=O)[nH]1 [Acyclic diol-guanosine, acyclic diol form of guanosine]",>2.1
2,"O=c1[nH]cnc2c1ncn2[C@@H](CO)OC(CO)CO [Acyclic diol-inosine, acyclic diol form of inosine]",>1.6

# Same assay, conditions: MDCK, 96 h, read-out: SIV infection inhibition concentration IC50
row,Compound,IC50
1,"Nc1nc2c(ncn2[C@@H](CO)OC(CO)CO)c(=O)[nH]1 [Acyclic diol-guanosine, acyclic diol form of guanosine]",4820 µM
2,"O=c1[nH]cnc2c1ncn2[C@@H](CO)OC(CO)CO [Acyclic diol-inosine, acyclic diol form of inosine]",6190 µM

# System: IBV
# Assay: microbe, parasite or virus in culture
# Format: cell-based, Avian Infectious Bronchitis virus
# Conditions: Avian coronavirus, Vero, 96 h, read-out: IBV infection inhibition concentration IC50
row,Compound,IC50
1,"Nc1nc2c(ncn2[C@@H](CO)OC(CO)CO)c(=O)[nH]1 [Acyclic diol-guanosine, acyclic diol form of guanosine]",1780 µM
2,"O=c1[nH]cnc2c1ncn2[C@@H](CO)OC(CO)CO [Acyclic diol-inosine, acyclic diol form of inosine]",2660 µM

# Same assay, conditions: CC50/IC50
row,Compound,"SI (selectivity index), IBV"
1,"Nc1nc2c(ncn2[C@@H](CO)OC(CO)CO)c(=O)[nH]1 [Acyclic diol-guanosine, acyclic diol form of guanosine]",>5.6
2,"O=c1[nH]cnc2c1ncn2[C@@H](CO)OC(CO)CO [Acyclic diol-inosine, acyclic diol form of inosine]",>3.8

# System: NDV
# Assay: microbe, parasite or virus in culture
# Format: cell-based, Avian Newcastle Disease virus
# Conditions: CC50/IC50
row,Compound,"SI (selectivity index), NDV"
1,"Nc1nc2c(ncn2[C@@H](CO)OC(CO)CO)c(=O)[nH]1 [Acyclic diol-guanosine, acyclic diol form of guanosine]",>1.5
2,"O=c1[nH]cnc2c1ncn2[C@@H](CO)OC(CO)CO [Acyclic diol-inosine, acyclic diol form of inosine]",>2.3

# Same assay, conditions: avian paramyxovirus 1, Vero, 72 h, read-out: NDV infection inhibition concentration IC50
row,Compound,IC50
1,"Nc1nc2c(ncn2[C@@H](CO)OC(CO)CO)c(=O)[nH]1 [Acyclic diol-guanosine, acyclic diol form of guanosine]",6710 µM
2,"O=c1[nH]cnc2c1ncn2[C@@H](CO)OC(CO)CO [Acyclic diol-inosine, acyclic diol form of inosine]",4440 µM

# System: BRV
# Assay: BRV infection inhibition in MDBK cells (RT-qPCR)
# Format: cell-based, Bovine Rotavirus
# Conditions: CC50/IC50
# Protocol: The next day, BRV of 200 TCID50/well and inosine, xanthosine and guanosine in the dialdehyde and acyclic diol forms were treated to the cells simultaneously, and after 4 days, using commercialized Viral gene (DNA/RNA) extraction kit (iNtRON, 101410754), RNA was isolated.
# For the isolated RNA, using BRV-specific primers (F-[…] , R-[…] ) and realtime RT-qPCR experimental method (95° C., 10 minutes 1 cycle, 95° C., 15 seconds, 60° C., 15 seconds, 72° C., 20 seconds 40 cycles), the antiviral efficacy of the materials was confirmed.
row,Compound,"SI (selectivity index), BRV"
1,"Nc1nc2c(ncn2[C@@H](CO)OC(CO)CO)c(=O)[nH]1 [Acyclic diol-guanosine, acyclic diol form of guanosine]",>5.7
2,"O=c1[nH]cnc2c1ncn2[C@@H](CO)OC(CO)CO [Acyclic diol-inosine, acyclic diol form of inosine]",>5.2

# Same assay, conditions: Rotavirus A, 96 h; MDBK cells, 200 TCID50/well BRV, after 4 days; read-out: BRV infection inhibition concentration IC50
row,Compound,IC50
1,"Nc1nc2c(ncn2[C@@H](CO)OC(CO)CO)c(=O)[nH]1 [Acyclic diol-guanosine, acyclic diol form of guanosine]",1760 µM
2,"O=c1[nH]cnc2c1ncn2[C@@H](CO)OC(CO)CO [Acyclic diol-inosine, acyclic diol form of inosine]",1930 µM

# System: CPV
# Assay: CPV infection inhibition in MDCK cells (qPCR)
# Format: cell-based, Canine Parvovirus
# Conditions: CC50/IC50
# Protocol: For the isolated DNA, using CPV-specific primers (F-[…] , R-[…] ) and realtime RT-qPCR experimental method (95° C., 5 minutes 1 cycle, 95° C., 10 seconds, 60° C., 30 seconds, 40 cycles), the antiviral efficacy of the materials was confirmed.
row,Compound,"SI (selectivity index), CPV"
1,"O=c1[nH]cnc2c1ncn2[C@@H](CO)OC(CO)CO [Acyclic diol-inosine, acyclic diol form of inosine]",>4.6

# Same assay, conditions: Canine parvovirus, 96 h; MDCK cells, 200 TCID50/well CPV, after 4 days; read-out: CPV infection inhibition concentration IC50 (Table 10)
row,Compound,IC50
1,"O=c1[nH]cnc2c1ncn2[C@@H](CO)OC(CO)CO [Acyclic diol-inosine, acyclic diol form of inosine]",2190 µM

# Same assay, conditions: Canine parvovirus, MDCK; at 8000 μM; read-out: CPV infection inhibition efficacy
row,Compound,inhibition at 8000 µM
1,"Nc1nc2c(ncn2[C@@H](CO)OC(CO)CO)c(=O)[nH]1 [Acyclic diol-guanosine, acyclic diol form of guanosine]",18%

# Same assay, conditions: at 8000 μM
row,Compound,CPV virus titer reduction efficacy
1,"Nc1nc2c(ncn2[C@@H](CO)OC(CO)CO)c(=O)[nH]1 [Acyclic diol-guanosine, acyclic diol form of guanosine]",≥ 1 log10

# System: Vero cell line
# Assay: not given
# Conditions: monkey
row,Compound,CC50
1,"Nc1nc2c(ncn2[C@@H](CO)OC(CO)CO)c(=O)[nH]1 [Acyclic diol-guanosine, acyclic diol form of guanosine]",> 10000 µM
2,"O=c1[nH]cnc2c1ncn2[C@@H](CO)OC(CO)CO [Acyclic diol-inosine, acyclic diol form of inosine]",> 10000 µM

# System: not listed separately
# Assay: in vitro
# Conditions: monkey
row,Compound,CC50
1,"Nc1nc2c(ncn2[C@@H](CO)OC(CO)CO)c(=O)[nH]1 [Acyclic diol-guanosine, acyclic diol form of guanosine]",> 10000 µM
2,"O=c1[nH]cnc2c1ncn2[C@@H](CO)OC(CO)CO [Acyclic diol-inosine, acyclic diol form of inosine]",> 10000 µM

# System: not listed separately
# Assay: Cytotoxicity, PK15 cell test
# Conditions: pig, PK15 cells
row,Compound,CC50
1,"Nc1nc2c(ncn2[C@@H](CO)OC(CO)CO)c(=O)[nH]1 [Acyclic diol-guanosine, acyclic diol form of guanosine]",> 10000 µM
2,"O=c1[nH]cnc2c1ncn2[C@@H](CO)OC(CO)CO [Acyclic diol-inosine, acyclic diol form of inosine]",> 10000 µM

# System: not listed separately
# Assay: Cytotoxicity, MDCK cell tests
# Conditions: dog, MDCK cells
row,Compound,CC50
1,"Nc1nc2c(ncn2[C@@H](CO)OC(CO)CO)c(=O)[nH]1 [Acyclic diol-guanosine, acyclic diol form of guanosine]",> 10000 µM
2,"O=c1[nH]cnc2c1ncn2[C@@H](CO)OC(CO)CO [Acyclic diol-inosine, acyclic diol form of inosine]",> 10000 µM

# System: MDCK cell line
# Assay: Cytotoxicity, MDCK cell tests
# Conditions: read-out: CC50 (Table 10, CPV); cytotoxicity
row,Compound,CC50
1,"O=c1[nH]cnc2c1ncn2[C@@H](CO)OC(CO)CO [Acyclic diol-inosine, acyclic diol form of inosine]",> 10000 µM

# System: not listed separately
# Assay: Cytotoxicity, MDBK cell tests
# Conditions: bovine, MDBK cells
row,Compound,CC50
1,"Nc1nc2c(ncn2[C@@H](CO)OC(CO)CO)c(=O)[nH]1 [Acyclic diol-guanosine, acyclic diol form of guanosine]",> 10000 µM
2,"O=c1[nH]cnc2c1ncn2[C@@H](CO)OC(CO)CO [Acyclic diol-inosine, acyclic diol form of inosine]",> 10000 µM

# System: not listed separately
# Assay: Cytotoxicity (WST-1 / DAPI staining), PRRSV test cells
# Conditions: monkey, Marc-145 cells (monkey kidney)
row,Compound,CC50
1,"Nc1nc2c(ncn2[C@@H](CO)OC(CO)CO)c(=O)[nH]1 [Acyclic diol-guanosine, acyclic diol form of guanosine]",> 8000 µM
2,"O=c1[nH]cnc2c1ncn2[C@@H](CO)OC(CO)CO [Acyclic diol-inosine, acyclic diol form of inosine]",> 8000 µM
